From patent US12569437B2, “Disease-site-specific liposomal formulation” (Osaka University, priority 2017, dated 2026)
Marks after values point to notes of the source that are not given here.

Key:
Assay type in all cases: in vivo
[1] = tested on: spontaneous dilated cardiomyopathy (J2N-k) hamster model; assay: Echocardiography (EF %, % FS) in spontaneous dilated cardiomyopathy hamsters; details: for % FS Pre / EF % Pre: at grouping; for % FS 4 W / EF % 4 W: week 4; for % FS 8 W / EF % 8 W: week 8
Protocol: Improvement in the DDS cardiac function in the spontaneous dilated cardiomyopathy (J2N-k) hamster model by intermittent intravenous administration of Formulation 25 and compound (A) (ONO-1301) once every two weeks was evaluated by comparing the left ventricular ejection fraction (hereinafter referred to as “EF %”), left ventricular fractional shortening (hereinafter referred to as “% FS”), and histological evaluation, based on echocardiography, taken as indices. As a positive control, a group in which compound (A) (ONO-1301) was repeatedly orally administered twice daily was created.
As a test substance, Formulation 25 was used by suspending and diluting with physiological saline. Compound (A) (ONO-1301) as a control was used by dissolving in an equivalent amount of aqueous NaOH, and diluting with physiological saline. For groups of oral administration of compound (A) (ONO-1301), administration was performed as a suspension in a 0.5% CMC-Na aqueous solution.
The spontaneous dilated cardiomyopathy (J2N-k) male hamsters, 20 weeks old at the start of administration, Japan SLC, Inc., were administered with the test substances for 8 weeks, and used for comparison.
Animals arrived at the age of 18 weeks were subjected to a 2-week quarantine/acclimation period, and then to the test at the time of grouping (test start date) at the age of 20 weeks. Thereafter, tests were conducted 4 and 8 weeks after the test start date, and dissection was performed 8 weeks after the test start date.
Echocardiography was performed at the time of grouping, and at week 4 and week 8 after the start of administration. The measurement was performed 3 times for each individual, and the average value of the measured data was referred to as the measurement results.

[2] = tested on: spontaneous dilated cardiomyopathy (J2N-k) hamster model; assay: Left ventricular wall thickness and area in short-axis sections of removed heart; details: week 8; for Left ventricle wall thickness (mm) Anterior / Left ventricle wall thickness (mm) Lateral / Left ventricle wall thickness (mm) Posterior / Left ventricle wall thickness (mm) Septum: middle section
Protocol: Dissection was performed as follows. After all of the blood was collected from the abdominal aorta, and the hamsters were euthanized under isoflurane anesthesia, the heart and lungs were removed and weighed. After the weights thereof were measured, the removed parts, including the left and right ventricles, were divided into three parts; i.e., apical, middle, and basal parts, at intervals of about 2 mm along the short axis.
When removed, the heart, including the left and right ventricles, was divided into three parts; i.e., apical, middle, and basal parts, at intervals of about 2 mm along the short axis. Among them, one section of the middle part was photographed, and the wall thickness at the anterior, lateral, posterior, and septum parts, and the left ventricular area were measured using image-editing software. For the wall thickness of the left ventricle, image-editing software was used, the number of pixels in the scale area of 1 mm^2 on the photograph was obtained, and the outer diameter and inner diameter of the entire left ventricle wall were traced to obtain each number of pixels to thus calculate the left ventricular area by ((the number of pixels of the outer diameter−the number of pixels of the inner diameter)/1 mm^2). Thereafter, the wall thickness of each portion was measured.
The section was divided into three parts; i.e., apical, middle, and basal areas, at intervals of about 2 mm. Thereafter, using one section on the middle side, the wall thickness at the anterior, lateral, posterior, and septum parts, and the left ventricular area were measured. For the wall thickness of the left ventricle, image-editing software was used, the number of pixels in the scale area of 1 mm^2 on the photograph was obtained, and the outer diameter and inner diameter of the entire left ventricle wall were traced to obtain each number of pixels to thus calculate the left ventricular wall area by ((the number of pixels of the outer diameter−the number of pixels of the inner diameter)/1 mm^2). Thereafter, the wall thickness of each portion was measured.

[3] = tested on: rat monocrotaline (MCT)-induced severe heart failure (pulmonary hypertension) model; assay: Survival rate in rat monocrotaline-induced pulmonary hypertension model; details: 42 days after MCT
From the text: The produced Formulation 21 (ONO-1301Lipo formulation) as a test substance was intermittently administered intravenously once weekly to a rat monocrotaline (MCT)-induced severe heart failure (pulmonary hypertension) model from day 7 of the MCT administration, and the survival rate was compared with a group in which compound (A) (ONO-1301) was repeatedly orally administered; a group in which compound (A) was intermittently administered intravenously once weekly; and, as a positive control, a group in which an ET-1 antagonist (bosentan) was orally administered. In the control group, physiological saline (vehicle) was administered once weekly by intravenous administration.
For animals, Slc: Wistar male rats, 5 weeks old at the start of the test, and 66.4 to 90.8 g at arrival (Japan SLC, Inc.) were used. Monocrotaline (hereinafter referred to as “MCT”), lot No.: SLBG1999V (Sigma-Aldrich Corporation), was administered once subcutaneously at the back of the rats at a dose of 60 mg/kg. Six days after the MCT administration, the animals were divided into groups according to the weight stratification assignment method (Table 19).

[4] = Body weight and heart weight in rat myocardial ischemia model
Protocol: Dissection was performed after the completion of the echocardiography at day 14 after the administration of the test substance. For dissection, all of the blood was collected from the abdominal aorta, and the rats were euthanized under isoflurane anesthesia; thereafter, the heart was removed and weighed. After measuring the heart weight, the infarct area, including the left and right ventricles, was divided into three parts along the short axis.

[5] = 3.0 mg/kg intravenous once/2 weeks

Structure (SMILES): O=C(O)COc1cccc2c1CCC=C2CCO/N=C(\c1ccccc1)c1cccnc1 [Compound (A), ({5-[2-({[(1E)-phenyl(pyridin-3-yl)methylene]amino}oxy)ethyl]-7,8-dihydronaphthalen-1-yl}oxy)acetic acid]
- % FS Pre [1, 5]: 16.0 ± 2.1%
- EF % Pre [1, 5]: 38.8 ± 4.3%
- % FS 4 W [1, 5]: 16.1 ± 3.1%
- EF % 4 W [1, 5]: 35.7 ± 7.4%
- % FS 8 W [1, 5]: 12.3 ± 1.3^a %
- EF % 8 W [1, 5]: 30.8 ± 2.9^a %
- % FS Pre ([1]; 3.0 mg/kg p.o. twice/day): 18.2 ± 3.9%
- EF % Pre ([1]; 3.0 mg/kg p.o. twice/day): 43.0 ± 7.8%
- % FS 4 W ([1]; 3.0 mg/kg p.o. twice/day): 17.2 ± 7.2%
- EF % 4 W ([1]; 3.0 mg/kg p.o. twice/day): 40.4 ± 14.9%
- % FS 8 W ([1]; 3.0 mg/kg p.o. twice/day): 17.1 ± 4.5 %
- EF % 8 W ([1]; 3.0 mg/kg p.o. twice/day): 40.3 ± 9.2 %
- Left ventricular area (Middle part) (mm^2) ([2]; 3.0 mg/kg i.v. once/2 weeks): 23.9 ± 4.5 mm^2
- Left ventricle wall thickness (mm) Anterior [2, 5]: 1.1 ± 0.6 mm
- Left ventricle wall thickness (mm) Lateral [2, 5]: 1.2 ± 0.3 mm
- Left ventricle wall thickness (mm) Posterior [2, 5]: 1.2 ± 0.2 mm
- Left ventricle wall thickness (mm) Septum [2, 5]: 1.0 ± 0.3 mm
- Left ventricle wall thickness (mm) Anterior ([2]; 3.0 mg/kg p.o. twice/day): 1.4 ± 0.5 mm
- Left ventricle wall thickness (mm) Lateral ([2]; 3.0 mg/kg p.o. twice/day): 1.5 ± 0.2 mm
- Left ventricle wall thickness (mm) Posterior ([2]; 3.0 mg/kg p.o. twice/day): 1.2 ± 0.4 mm
- Left ventricle wall thickness (mm) Septum ([2]; 3.0 mg/kg p.o. twice/day): 1.5 ± 0.3 mm
- Left ventricular area (Middle part) (mm^2) ([2]; 3.0 mg/kg p.o. twice/day): 26.4 ± 4.3 mm^2
- Survival rate (%) ([3]; intravenous 1 mg/kg/week from day 7): 20%
- Survival rate (%) ([3]; oral 3 mg/kg × twice/day from day 7): 50* %
- Body weight (g) At dissection ([4]; 3.0 mg/kg single i.v., day 14): 406.7 ± 37.4 g
- Body weight (g) Before drug administration ([4]; group 3.0 mg/kg single i.v.): 325.1 ± 22.3 g
- Body weight (g) Before preparation of AMI ([4]; group 3.0 mg/kg single i.v.): 339.7 ± 13.6 g
